From patent publication US20170114021A1, “HALOGEN-SUBSTITUTED COMPOUNDS” (priority 2014, published 2017)

Experiments:
Format in all cases: in vivo
[1] = system: Boophilus microplus; experiment: Boophilus microplus injection test (BOOPMI Inj); conditions: application rate 4 μg/animal; injection into abdomen
Description: Boophilus microplus—Injection Test (BOOPMI Inj) Solvent: dimethyl sulphoxide
To produce a suitable preparation of active compound, 10 mg of active compound are mixed with 0.5 ml of solvent and the concentrate is diluted with solvent to the desired concentration.
1 μl of the active compound solution is injected into the abdomen of 5 engorged adult female cattle ticks (Boophilus microplus). The animals are transferred into dishes and kept in a climate-controlled room.
The activity is assessed after the desired time by laying of fertile eggs. Eggs which are not visibly fertile are stored in a climate-controlled cabinet until the larvae hatch after about 42 days. An efficacy of 100% means that none of the ticks has laid any fertile eggs; 0% means that all the eggs are fertile.

[2] = system: Ctenocephalides felis; experiment: Ctenocephalides felis oral test (CTECFE); conditions: application rate 20 ppm in citrated cattle blood; after 2 days
Description: Ctenocephalides felis—Oral Test (CTECFE) Solvent: dimethyl sulphoxide
To produce a suitable preparation of active compound, 10 mg of active compound are mixed with 0.5 ml of dimethyl sulphoxide. Dilution with citrated cattle blood gives the desired concentration.
About 20 unfed adult cat fleas (Ctenocephalides felis) are placed into a chamber which is closed at the top and bottom with gauze. A metal cylinder whose bottom end is closed with parafilm is placed onto the chamber. The cylinder contains the blood/active compound preparation, which can be imbibed by the fleas through the parafilm membrane.
After 2 days, the kill in % is determined. 100% means that all of the fleas have been killed; 0% means that none of the fleas have been killed.

[3] = system: Boophilus microplus Parkhurst strain, SP-resistant; experiment: Boophilus microplus dip test (BOOPMI Dip); conditions: application rate 20 ppm; engorged adult female cattle ticks; after 7 days
Description: Boophilus microplus—Dip Test (BOOPMI Dip) Test animals: cattle ticks (Boophilus microplus) Parkhurst strain, SP-resistant Solvent: dimethyl sulphoxide
10 mg of active compound are dissolved in 0.5 ml of dimethyl sulphoxide. To produce a suitable formulation, the active compound solution is diluted with water to the concentration desired in each case.
This active compound preparation is pipetted into tubes. 8-10 engorged adult female cattle ticks (Boophilus microplus) are transferred into a further tube with holes. The tube is immersed into the active compound preparation, and all the ticks are completely wetted. After the liquid has run out, the ticks are transferred on filter discs into plastic dishes and stored in a climate-controlled room.
Efficacy is assessed after 7 days by laying of fertile eggs. Eggs which are not visibly fertile are stored in a climate-controlled cabinet until the larvae hatch after about 42 days. An efficacy of 100% means that none of the ticks has laid any fertile eggs; 0% means that all the eggs are fertile.

N-{2-fluoro-5-[2′-methyl-5′-(pentafluoroethyl)-4′-(trifluoromethyl)-2′H-1,3′-bipyrazol-4-yl]benzyl}propanamide [Ic-1]
100%: efficacy (laying of fertile eggs) [1] | efficacy (kill) [2] | efficacy (laying of fertile eggs) [3]
